A word on the TGI: it is the concentration at which net growth stops. High values mean less potent growth arrest, low ones more potent growth arrest. The term GI50 denotes the concentration that inhibits growth by half.

Structures are written as SMILES.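 Exposure lasted 48 hours, with cells grown in 96-well plates and compounds tested at five concentrations. GI50 = concentration required for 50% inhibition of growth. TGI is the concentration that stops growth completely.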 Where a SMILES comes first, the peptide text is derived from it. The star is where a group is joined. Boc = CC(C)(C)OC(=O)*

In PubChem BioAssay (NCI) one finds TGI and GI50 data, which are given here for 30 compounds.

The subject of one experiment is SK-MEL-2 melanoma. Nature of the experiment: DTP human tumour cell line panel, 48 h.
With `c1ccc2sc(SCSc3nc4ccccc4s3)nc2c1`, the TGI is over 100 µM.

`O=c1cc(N=P(c2ccccc2)(c2ccccc2)c2ccccc2)n(-c2ccccc2)c(=O)n1-c1ccccc1` yielded a TGI of 58.1 µM. This lies in the double-digit micromolar range.

In turn, `O=C1/C(=C\c2cccc(Oc3ccccc3)c2)S(=O)(=O)C(c2ccccc2)N1Cc1ccccc1` (stereo unspecified) came in with a concentration for total growth inhibition (TGI) of 40.7 µM.

On to `Cc1ccccc1C(O)(c1nccn1C)c1nccn1C`, for which the TGI was over 100 µM.

Turning to `C=CCn1c(=O)ccn(COCCO)c1=O`, the TGI was over 100 µM.

Take `O=C(N=Nc1cc(Cl)ccc1Cl)NNc1cc(Cl)ccc1Cl`: the TGI is 51.5 µM.

As to `CSc1cc(Cl)c(C)cc1S(=O)(=O)NC(=O)NNc1ccc(Cl)cc1`, the total growth inhibition concentration (TGI) is over 100 µM.

`CCOC(=O)NC(=S)NN(C)C1=NCC(C)(C)S1` showed a TGI of over 100 µM.

With `Cc1cc2[nH]c3[nH]c(=O)[nH]c(=O)c3c2cc1C`, the TGI is over 100 µM.

Regarding `O=c1c2ccccc2nc2[nH][nH]c(=S)n12`, the concentration for total growth inhibition (TGI) was over 100 µM.

In turn, `COc1ccc(CC(O)CN2CCOCC2)cc1` (stereo unspecified) showed a TGI of over 100 µM.

In turn, `CC(O)C1CC1(CO)CNc1cc(Cl)nc(N)n1` (stereo unspecified) returned a TGI of over 100 µM.

Compound `CN(C)Cc1cc(C(=O)/C=C/c2ccc(O)cc2)cc(CN(C)C)c1O` yielded a total growth inhibition concentration (TGI) of over 100 µM.

In another experiment the test system is SK-OV-3 ovarian. Nature of the experiment: DTP human tumour cell line panel, 48 h.
As to `CS(=O)(=O)OCCn1c(=O)n(CCOS(C)(=O)=O)c(=O)n(CCOS(C)(=O)=O)c1=O`, the TGI was over 100 µM.

`c1ccc2c(c1)NC(C1OC3CCCN3C1C1Nc3ccccc3S1)S2` (stereo unspecified) showed a TGI of over 100 µM.

The compound `COc1nc(C#CCC(C)O)nc(OC)n1` (stereo unspecified) registered a TGI of over 100 µM.

Turning to `Cc1c2c(n(CCc3ccc(Cl)cc3)c1C)NN=C(C#N)S2(=O)=O`, the concentration for total growth inhibition (TGI) was over 100 µM.

In turn, `CSc1c(C#N)c(N)n2c1C(=O)N(c1ccccc1)C2=S` gave a concentration for total growth inhibition (TGI) of over 100 µM.

Turning to `COc1ccc2cc(-c3ccc(-c4ccc(C(=N)N)s4)s3)ccc2c1`, the GI50 is 17.9 µM and the TGI amounted to 33.2 µM.

The compound `N#CCCN(CCC#N)c1ccc(/C=C2\N=C(c3ccccc3)N(c3ccc(Cl)cc3)C2=O)cc1` came in with a TGI of over 100 µM.

`NNC(=O)c1ccc[n+](CCc2ccccc2)c1` showed a concentration for total growth inhibition (TGI) of over 100 µM.

As for `O=C1CN2C(c3ccccc3)=NN(c3ccc([N+](=O)[O-])cc3)C2(c2ccccc2)c2cc(Cl)ccc2N1CC1CC1` (stereo unspecified), the TGI was over 100 µM.

Consider `CCN(CCO)CC1COc2ccccc2O1` (stereo unspecified), for which the concentration for total growth inhibition (TGI) was over 100 µM.

Turning to `CCOC(=O)c1c(-c2ccc(OC)cc2)c(C#N)c(=S)n(C2OC(COC(C)=O)C(OC(C)=O)C(OC(C)=O)C2OC(C)=O)c1C` (stereo unspecified), the TGI was over 100 µM.

Compound `O=c1cc(N=P(c2ccccc2)(c2ccccc2)c2ccccc2)n(-c2ccccc2)c(=O)n1-c1ccccc1` registered a total growth inhibition concentration (TGI) of 76.1 µM.

Consider `O=C(NCCCN(CCCCN(CCCNC(=O)C(F)(F)F)Cc1ccccc1)Cc1ccccc1)C(F)(F)F`, for which the concentration for total growth inhibition (TGI) is 36.1 µM. Against the preceding compound, the TGI is about 2.1-fold lower.

On to `O=C(CCCN1CCC2(CC1)CC(=O)N(N1CCOCC1)C2=O)c1ccccc1`, for which the total growth inhibition concentration (TGI) was over 100 µM.

`O=C1/C(=C\c2cccc(Oc3ccccc3)c2)S(=O)(=O)C(c2ccccc2)N1Cc1ccccc1` (stereo unspecified) showed a TGI of over 100 µM.

The compound `Cc1ccccc1C(O)(c1nccn1C)c1nccn1C` returned a TGI of over 100 µM.

Regarding `CCOC(=N)n1c(=O)n(C2=NCCN2)c2ccccc21`, the TGI was over 100 µM.

In turn, `O=C(N=Nc1cc(Cl)ccc1Cl)NNc1cc(Cl)ccc1Cl` gave a concentration for total growth inhibition (TGI) of 63 µM.

Take `CSc1cc(Cl)c(C)cc1S(=O)(=O)NC(=O)NNc1ccc(Cl)cc1`: the TGI is over 100 µM.

`CCOC(=O)NC(=S)NN(C)C1=NCC(C)(C)S1` came in with a TGI of over 100 µM.

`O=C(CNc1ccccc1Cl)Nn1c(-c2ccccc2)nc2ccccc2c1=O` had a TGI of over 100 µM.

As to `Cc1cc2[nH]c3[nH]c(=O)[nH]c(=O)c3c2cc1C`, the TGI was over 100 µM.

Compound `O=c1c2ccccc2nc2[nH][nH]c(=S)n12` gave a TGI of over 100 µM.

Compound `CC1(C)N=C(C(N)=O)c2ncn(CCCO)c2N1` displayed a TGI of over 100 µM.

`CC(C)(C)OC(=O)NCC(=O)NCC(=O)NCC(=O)NCC(=O)O` (Boc-GGGG-OH) came in with a concentration for total growth inhibition (TGI) of over 100 µM.

Regarding `CC(O)C1CC1(CO)CNc1cc(Cl)nc(N)n1` (stereo unspecified), the TGI is over 100 µM.

The next experiment deals with UACC-62 melanoma. Nature of the experiment: DTP human tumour cell line panel, 48 h.
Compound `CS(=O)(=O)OCCn1c(=O)n(CCOS(C)(=O)=O)c(=O)n(CCOS(C)(=O)=O)c1=O` registered a TGI of over 100 µM.

On to `c1ccc2c(c1)NC(C1OC3CCCN3C1C1Nc3ccccc3S1)S2` (stereo unspecified), for which the TGI is over 100 µM.

Take `COc1nc(C#CCC(C)O)nc(OC)n1` (stereo unspecified): the TGI worked out at 37.3 µM.

Compound `Cc1c2c(n(CCc3ccc(Cl)cc3)c1C)NN=C(C#N)S2(=O)=O` showed a total growth inhibition concentration (TGI) of over 100 µM.

Compound `CSc1c(C#N)c(N)n2c1C(=O)N(c1ccccc1)C2=S` showed a TGI of over 100 µM.

With `N#CCCN(CCC#N)c1ccc(/C=C2\N=C(c3ccccc3)N(c3ccc(Cl)cc3)C2=O)cc1`, the TGI was over 100 µM.

`NNC(=O)c1ccc[n+](CCc2ccccc2)c1` came in with a total growth inhibition concentration (TGI) of over 100 µM.

With `O=C1CN2C(c3ccccc3)=NN(c3ccc([N+](=O)[O-])cc3)C2(c2ccccc2)c2cc(Cl)ccc2N1CC1CC1` (stereo unspecified), the TGI is over 100 µM.

Turning to `CCN(CCO)CC1COc2ccccc2O1` (stereo unspecified), the TGI is over 100 µM.

`c1ccc2sc(SCSc3nc4ccccc4s3)nc2c1` came in with a total growth inhibition concentration (TGI) of over 100 µM.

For `CCOC(=O)c1c(-c2ccc(OC)cc2)c(C#N)c(=S)n(C2OC(COC(C)=O)C(OC(C)=O)C(OC(C)=O)C2OC(C)=O)c1C` (stereo unspecified), the concentration for total growth inhibition (TGI) is over 100 µM.

The compound `O=c1cc(N=P(c2ccccc2)(c2ccccc2)c2ccccc2)n(-c2ccccc2)c(=O)n1-c1ccccc1` returned a concentration for total growth inhibition (TGI) of 39.6 µM.

In turn, `O=C(NCCCN(CCCCN(CCCNC(=O)C(F)(F)F)Cc1ccccc1)Cc1ccccc1)C(F)(F)F` came in with a total growth inhibition concentration (TGI) of 30.6 µM.

Regarding `O=C(CCCN1CCC2(CC1)CC(=O)N(N1CCOCC1)C2=O)c1ccccc1`, the total growth inhibition concentration (TGI) was over 100 µM.

In turn, `O=C1/C(=C\c2cccc(Oc3ccccc3)c2)S(=O)(=O)C(c2ccccc2)N1Cc1ccccc1` (stereo unspecified) yielded a total growth inhibition concentration (TGI) of 57.7 µM.

`Cc1ccccc1C(O)(c1nccn1C)c1nccn1C` gave a TGI of over 100 µM.

`CCOC(=N)n1c(=O)n(C2=NCCN2)c2ccccc21` came in with a total growth inhibition concentration (TGI) of over 100 µM.

On to `O=C(N=Nc1cc(Cl)ccc1Cl)NNc1cc(Cl)ccc1Cl`, for which the TGI was determined as 27 µM.

In turn, `CCOC(=O)NC(=S)NN(C)C1=NCC(C)(C)S1` returned a TGI of over 100 µM.

For `O=C(CNc1ccccc1Cl)Nn1c(-c2ccccc2)nc2ccccc2c1=O`, the TGI is over 10 µM.

As to `Cc1cc2[nH]c3[nH]c(=O)[nH]c(=O)c3c2cc1C`, the total growth inhibition concentration (TGI) was over 100 µM.

Regarding `O=c1c2ccccc2nc2[nH][nH]c(=S)n12`, the concentration for total growth inhibition (TGI) is over 100 µM.

`CC1(C)N=C(C(N)=O)c2ncn(CCCO)c2N1`: the concentration for total growth inhibition (TGI) is over 100 µM.

For the compound `CC(C)(C)OC(=O)NCC(=O)NCC(=O)NCC(=O)NCC(=O)O` (Boc-GGGG-OH), the TGI was over 100 µM.

The compound `COc1ccc(CC(O)CN2CCOCC2)cc1` (stereo unspecified) yielded a TGI of over 100 µM.

Take `CN(C)Cc1cc(C(=O)/C=C/c2ccc(O)cc2)cc(CN(C)C)c1O`: the concentration for total growth inhibition (TGI) was over 100 µM.
